Measurements published in patent US6610719B2 (Pfizer Inc., priority 2000, dated 2003).

Tests used:
EP2 receptor = target: T1, EP2 receptor (Homo sapiens, UniProt P43116); experiment: Assay for binding to prostaglandin E2 receptors, 3H-PGE2 displacement (EP2); settings: displacement of 3H-prostaglandin E2, membranes of transfected 293S cells; read-out: IC50 at EP2 receptor subtype
T1 construct: These full length receptors are used to prepare 293S cells expressing the EP1, EP2, EP3 and EP4 receptors; expressed in transfected cells; membranes
T1 sequence (P43116 whole entry): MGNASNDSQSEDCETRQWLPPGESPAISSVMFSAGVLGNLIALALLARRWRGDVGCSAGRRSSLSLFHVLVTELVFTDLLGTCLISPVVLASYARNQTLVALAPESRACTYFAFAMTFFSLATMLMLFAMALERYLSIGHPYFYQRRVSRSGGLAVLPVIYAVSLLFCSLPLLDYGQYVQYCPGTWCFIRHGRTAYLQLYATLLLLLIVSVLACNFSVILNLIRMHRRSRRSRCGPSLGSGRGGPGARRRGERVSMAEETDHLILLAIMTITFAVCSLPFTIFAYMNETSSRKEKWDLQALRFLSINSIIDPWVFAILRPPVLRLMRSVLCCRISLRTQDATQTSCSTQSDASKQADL
Procedure: (§1) All operations are performed at 4° C. […] The cells are lysed by sonification with a Branson Sonifier (Model #250, Branson Ultrasonics Corporation, Danbury, Conn.) in 2 fifteen second bursts. Unlysed cells and debris are removed by centrifugation at 100×g for 10 min. Membranes are then harvested by centrifugation at 45,000×g for 30 minutes. Pelleted membranes are resuspended to 3-10 mg of protein per ml of Buffer A, the protein concentration being determined by the method of Bradford [M. Bradford, Anal. Biochem., 72, 248 (1976)]. Resuspended membranes are then stored frozen at −80° C. until use.
(§2) Frozen membranes prepared as above are thawed and diluted to 1 mg protein per ml in Buffer A above. One volume of membrane preparation is combined with 0.05 volume test compound or buffer and one volume of 3 nM ^3H-prostaglandin E2 (#TRK 431, Amersham, Arlington Heights, Ill.) in Buffer A. The mixture (205 μL total volume) is incubated for 1 hour at 25° C. The membranes are then recovered by filtration through type GF/C glass fiber filters (#1205-401, Wallac, Gaithersburg, Md.) using a Tomtec harvester (Model Mach 11/96, Tomtec, Orange, Conn.). […] To determine the amount of ^3H-prostaglandin bound to the membranes, the dried filters are placed into plastic bags with scintillation fluid and counted in a LKB 1205 Betaplate reader (Wallac, Gaithersburg, Md.). […]

[1] = system: reperfusion renal injury model; experiment: Reperfusion renal injury model (clamping both renal arteries for 60 minutes); type: in vivo, rat; settings: 24 hours following reperfusion
Procedure: Two different models of acute renal failure were used: the nephrotoxic acute renal failure model, as described above, and the reperfusion renal injury model, which involved clamping both renal arteries for 60 minutes. (K. J. Kelly, W. W. Williams, R. B. Colvin and J. V. Bonventure, “Intercellular Adhesion Molecule 1 Protects the Kidney Against Ischemic Injury,” Proc. Natl. Acad. Sci. USA, 91:812-816 (1994); and S. Vukicevic, V. Basic, D. Rogic, N. Basic, M. S. Shih, A. Shepard, D. Jin, D. Bosukonda, W. Jones, H. Dorai, S. Ryan, D. Griffiths, J. Maliakal, M. Jelic, M. Pastorcic, A. Stavljenic and K. Sampath, “Osteogenic Protein-1 (Bone Morphogenetic Protein-7) Reduces Severity of Injury After Ischemic Acute Renal Failure in Rat,” J. Clin. Invest.,102:202-214 (1998).)
The animals were dosed with the EP4 agonist just prior to the initiation of the nephrotoxic insult.

EP1 receptor = target: T2, EP1 receptor (Homo sapiens, UniProt P34995); experiment: Assay for binding to prostaglandin E2 receptors, 3H-PGE2 displacement (EP1); settings: displacement of 3H-prostaglandin E2, membranes of transfected 293S cells; read-out: IC50 at EP1 receptor subtype
T2 construct: These full length receptors are used to prepare 293S cells expressing the EP1, EP2, EP3 and EP4 receptors; expressed in transfected cells; membranes
T2 sequence (P34995 1-402): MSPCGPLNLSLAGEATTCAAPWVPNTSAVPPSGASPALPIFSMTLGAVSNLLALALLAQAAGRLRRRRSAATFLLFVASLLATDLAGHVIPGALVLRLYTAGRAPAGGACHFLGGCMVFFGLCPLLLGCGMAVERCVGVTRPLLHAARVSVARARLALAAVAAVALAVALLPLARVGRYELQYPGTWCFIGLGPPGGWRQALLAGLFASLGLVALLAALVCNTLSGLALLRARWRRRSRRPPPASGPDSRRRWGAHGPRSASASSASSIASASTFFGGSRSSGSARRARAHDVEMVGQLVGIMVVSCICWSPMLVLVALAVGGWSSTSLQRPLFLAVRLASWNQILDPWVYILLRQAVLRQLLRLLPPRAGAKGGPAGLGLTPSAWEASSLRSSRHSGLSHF
Procedure: as §1, §2

EP3 receptor = target: T3, EP3 receptor (Homo sapiens, UniProt P43115); experiment: Assay for binding to prostaglandin E2 receptors, 3H-PGE2 displacement (EP3); settings: displacement of 3H-prostaglandin E2, membranes of transfected 293S cells; read-out: IC50 at EP3 receptor subtype
T3 construct: These full length receptors are used to prepare 293S cells expressing the EP1, EP2, EP3 and EP4 receptors; expressed in transfected cells; membranes
T3 sequence (P43115 1-390): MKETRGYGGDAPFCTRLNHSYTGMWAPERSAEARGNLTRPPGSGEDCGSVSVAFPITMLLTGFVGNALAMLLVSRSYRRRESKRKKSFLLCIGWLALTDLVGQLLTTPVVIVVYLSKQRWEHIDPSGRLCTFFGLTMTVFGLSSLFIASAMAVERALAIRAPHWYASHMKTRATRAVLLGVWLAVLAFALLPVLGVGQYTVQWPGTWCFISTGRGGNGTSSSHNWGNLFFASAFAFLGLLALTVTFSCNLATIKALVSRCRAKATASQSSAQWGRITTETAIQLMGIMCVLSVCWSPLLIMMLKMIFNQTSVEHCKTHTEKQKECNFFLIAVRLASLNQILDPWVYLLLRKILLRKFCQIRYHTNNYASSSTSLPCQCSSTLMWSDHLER
Procedure: as §1, §2

EP4 receptor = target: T4, EP4 receptor (Homo sapiens, UniProt P35408); experiment: Assay for binding to prostaglandin E2 receptors, 3H-PGE2 displacement (EP4); settings: displacement of 3H-prostaglandin E2, membranes of transfected 293S cells
T4 construct: These full length receptors are used to prepare 293S cells expressing the EP1, EP2, EP3 and EP4 receptors; expressed in transfected cells; membranes
T4 sequence (P35408 whole entry): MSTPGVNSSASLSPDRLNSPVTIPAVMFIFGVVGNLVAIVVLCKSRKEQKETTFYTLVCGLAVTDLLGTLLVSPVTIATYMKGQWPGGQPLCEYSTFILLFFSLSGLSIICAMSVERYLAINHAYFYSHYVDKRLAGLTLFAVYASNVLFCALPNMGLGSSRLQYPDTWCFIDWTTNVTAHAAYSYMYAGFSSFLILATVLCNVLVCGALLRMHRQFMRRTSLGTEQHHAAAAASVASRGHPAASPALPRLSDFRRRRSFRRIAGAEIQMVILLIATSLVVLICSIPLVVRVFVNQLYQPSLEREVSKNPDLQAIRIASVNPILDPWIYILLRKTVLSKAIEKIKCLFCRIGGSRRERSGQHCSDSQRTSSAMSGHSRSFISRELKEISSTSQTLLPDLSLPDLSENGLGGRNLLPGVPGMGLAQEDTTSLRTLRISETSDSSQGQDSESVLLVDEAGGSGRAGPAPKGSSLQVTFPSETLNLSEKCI
Procedure: as §1, §2

[2] = system: nephrotoxic acute renal failure model; experiment: Nephrotoxic acute renal failure model; type: in vivo, rat
Procedure: The remnant rat kidney (5/6 nephrectomy) model employed was essentially as previously described in the literature (Vukicevic et al., Journal of Bone and Mineral Research, 2:533-545 (1987)). In brief, male rats (4 months old, weighing approximately 400 g) were anesthesized by intraperitoneal administration of ketamin (20 mg/kg) and then subjected to unilateral nephrectomy (left kidney). All animals were subjected to intraperitoneal administration of 1-3 ml of prewarmed saline to compensate for any fluid loss during the surgery. After one week, ⅔ of the remaining kidney was surgically removed. The rats were allowed to recover for one or two weeks prior to the initiation of the therapy for the prevention of the disease.
Blood samples (0.5 ml) were obtained from the orbital plexus and serum creatinine, BUN (blood urea nitrogen), calcium, phosphate and other blood chemistries were monitored throughout the study. Urine was collected on metabolic cages for 24 h. Creatinine was measured by a Jaffe method. A. W. Whelton, A. J. Watson and R. C. Rock: “Nitrogen Metabolites and Renal Function,” in: Clinical Chemistry (Eds: C. A. Burtis and E. R. Ashwood) W. B. Saunders, Philadelphia, Pa., 1513-1575 (1994). BUN was measured by a glutamate dehydrogenase ultraviolet method, phosphorus by a molybdate method, and calcium by an o-cresolphtaleine method. R. A. Lafayette, R. D. Perrone and A. S. Levey: “Laboratory Evaluation of Renal Function,” in: Diseases of the Kidney (Eds: R. W. Schrier and C. W. Gottschalk), Little, Brown and Company, Inc., Vol. 6, 307-354 (1997). The GFR was calculated using […] (24 hr collection) and adjusted to body weights. The cumulative survival rate was also observed and recorded for both the control and the experimental groups. The kidney was subjected to histomorphometric analysis and scored for tissue pathology.
Two different models of acute renal failure were used: the nephrotoxic acute renal failure model, as described above, and the reperfusion renal injury model, which involved clamping both renal arteries for 60 minutes. […]

SMILES: O=C(O)CCCCCCN1C(=O)CCC1CCC(O)Cc1ccccc1 (centres unmarked) [7-(2-(3-hydroxy-4-phenyl-butyl)-5-oxo-pyrrolidin-1-yl)-heptanoic acid]
- IC50 (EP2 receptor): > 3.2 µM
- efficacy in reperfusion renal injury [1]: effective 24 hours following reperfusion
- IC50 (EP1 receptor): > 3.2 µM
- IC50 (EP3 receptor): > 3.2 µM
- IC50 (EP4 receptor): 0.016 µM
- animals survived after seven days ([2]; dose of 10 mg/kg, control group four out of ten): nine out of ten
- protection against renal injury, based on serum parameters ([2]; dosed just prior to the nephrotoxic insult): effective in protecting against renal injury
- survival time of animals ([2]; doses 1 mg/kg and 10 mg/kg, 10 mg/kg better than 1 mg/kg): increased the survival time of animals in a dose dependent manner
